Biological target: Epidermal growth factor receptor (Homo sapiens, UniProt P00533)
Experiment: Kinase Inhibition Assay: Reagents and Materials:WT EGFR (Carna, Cat. No. 08-115), EGFR [L858R] (Carna, Cat. No. 08-502), EGFR [L858R/T790M] (Carna, Cat. No. 08-510), ATP (Sigma, Cat. No. A7699-1G), DMSO (Sigma, Cat. No. D2650), 96-well plate (Corning, Cat. No. 3365), 384-well plate (Greiner, Cat. No. 784076), HTRF Kinase TK Kit (Cisbio, Cat. No. 62TK0PEJ), Erlotinib (Selleckchem, Cat. No. S7787) …
Description: Then, it was diluted in DMSO with a 3-fold series gradient dilution for 10 times. […] The corresponding substrate and ATP were added and reacted at room temperature for 20 minutes (in which a negative and a positive control were set: the negative control is blank and the positive control is erlotinib). […] The inhibitions of the enzyme activity by the compounds at different concentrations were then fitted using Graphpad 5.0 software according to the four-parameter equation, and the IC50 values were calculated.

Chain of Epidermal growth factor receptor (P00533 25-1210 limits assumed, stated change not applied): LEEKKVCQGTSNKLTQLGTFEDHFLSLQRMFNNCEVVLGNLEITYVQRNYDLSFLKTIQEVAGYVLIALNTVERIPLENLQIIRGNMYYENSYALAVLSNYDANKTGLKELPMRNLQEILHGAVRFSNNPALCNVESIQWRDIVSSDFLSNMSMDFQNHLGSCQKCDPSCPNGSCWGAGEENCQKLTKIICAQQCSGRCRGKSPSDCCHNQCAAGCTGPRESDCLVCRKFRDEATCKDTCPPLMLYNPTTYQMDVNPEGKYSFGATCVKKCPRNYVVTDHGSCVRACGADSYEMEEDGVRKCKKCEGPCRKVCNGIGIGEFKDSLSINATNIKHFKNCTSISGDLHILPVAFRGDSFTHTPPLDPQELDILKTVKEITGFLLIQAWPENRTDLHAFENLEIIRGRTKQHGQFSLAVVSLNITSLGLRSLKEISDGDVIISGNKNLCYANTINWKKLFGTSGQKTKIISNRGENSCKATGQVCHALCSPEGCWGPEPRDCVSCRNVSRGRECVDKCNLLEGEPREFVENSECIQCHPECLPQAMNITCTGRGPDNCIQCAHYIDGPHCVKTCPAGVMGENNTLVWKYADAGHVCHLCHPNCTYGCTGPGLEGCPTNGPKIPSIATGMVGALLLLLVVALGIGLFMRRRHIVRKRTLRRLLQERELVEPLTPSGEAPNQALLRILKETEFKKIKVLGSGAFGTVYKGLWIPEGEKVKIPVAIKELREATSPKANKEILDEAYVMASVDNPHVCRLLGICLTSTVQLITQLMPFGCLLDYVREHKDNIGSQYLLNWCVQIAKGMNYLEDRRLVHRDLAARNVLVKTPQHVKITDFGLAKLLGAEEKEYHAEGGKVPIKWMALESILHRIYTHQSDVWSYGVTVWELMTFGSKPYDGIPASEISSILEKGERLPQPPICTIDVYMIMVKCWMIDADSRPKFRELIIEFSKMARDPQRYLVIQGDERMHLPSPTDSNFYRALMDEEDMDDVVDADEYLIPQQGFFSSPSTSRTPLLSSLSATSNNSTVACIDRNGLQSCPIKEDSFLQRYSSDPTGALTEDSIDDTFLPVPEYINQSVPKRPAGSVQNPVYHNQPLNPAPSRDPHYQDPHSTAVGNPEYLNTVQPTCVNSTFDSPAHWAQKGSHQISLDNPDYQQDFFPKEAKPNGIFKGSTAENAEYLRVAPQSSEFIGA

C=CC(=O)Nc1cc(Nc2nccc(-c3cc(F)c4nc(C)n(C(C)C)c4c3)n2)c(OC)cc1N1CCC(OC)CC1
IC50: > 100 nM

From ChEMBL document CHEMBL5728717, “Amino pyrimidine compound for inhibiting protein tyrosine kinase activity” (2021)
